Results on three compounds are retold here after patent US20220162610A1, “NOVEL RNA TRANSCRIPT” (PTC Therapeutics, Inc., priority 2020, published 2022).

Data set [1] has as its system human HTT intron 49 minigene. Nature of the data set: Human HTT intron 49 minigene splicing in transfected HEK293 cells (endpoint PCR). The data set is classed as cell-based. The following applies: 10 nM, 100 nM, 1 μM, 24 h. On the procedure: To identify potential sequence elements, human, mouse, and hybrid mouse/human HTT intron 49 minigene constructs were generated (FIG. 7A,7Bi-xii, 7Di-viii and 7Ei-vi). HEK293 cells transfected with the minigene constructs were treated with varying concentrations of test compounds in a final concentration 0.05% DMSO and incubated for 24 hours. Total RNA was isolated from the cells using the RNeasy plus mini kit (Qiagen) and RNA concentration and quality were assessed using a NanoDrop spectrophotometer (Thermo Fisher Scientific). cDNA was synthesized using an iScript™ cDNA synthesis kit (Bio-rad Laboratories) according to the manufacturer's instructions. Endpoint PCRs were set up using Platinum™ PCR SuperMix High Fidelity (Invitrogen) and the resulting PCR products separated on 2% eGels (Invitrogen). Primers were directed against common sequences in the minigene constructs: […]

Data set [2] in a line: Oral pharmacokinetics in WT littermates of the BACHD colony. It is filed as in vivo, mouse. The following applies: single oral dose of 10 mg/kg. The method, then:
Oral pharmacokinetics (PK) of compounds was evaluated in WT littermates from the BACHD colony (FVB background). Mice were treated with test compounds (10 mg/kg) by oral gavage in 0.5% hydroxypropylmethyl cellulose (HPMC) with 0.1% Tween 80. Blood was collected by terminal cardiac puncture at specified time points (3 mice per time point) and centrifuged to generate plasma. Brain tissue was collected at the time of blood collection and homogenized in water. Protein was precipitated from plasma and brain homogenates with acetonitrile, methanol mixture (5:1, v:v) containing an internal standard that is a close analog of the test compounds. The mixture was filtered through an EMD Millipore MultiScreen™ Solvinert Filter Plate (MSRLN04, Millipore, Burlington, Mass.). Calibration standards were prepared in the same matrix and processed with the testing samples. Filtrates were analysed using Acquity ultra performance liquid chromatography (UPLC) system (Waters Corporation) tandem with Xevo TQ-s Spectrometer (Waters Corporation). Samples were injected on to a Waters UPLC Acquity BEH C18 Column (2.1*50 mm, 1.7 μm) maintained at 50° C. The injection volume was 3 μL and the mobile phase flow rate was 0.45 mL/min. The mobile phase consisted of 2 solvents: A) 0.1% formic acid in water and B) 0.1% formic acid in acetonitrile. […]

The subject of data set [3] is mouse HTT protein. Nature of the data set: Mouse HTT protein expression under compound treatment. It is filed as cell-based. The following applies: at concentrations that reduce human HTT protein expression.
Data set [4] has as its system human HTT protein. Nature of the data set: Pharmacodynamic study in Hu97/18 mice, HTT protein in tissues, CSF and plasma. The data set is classed as in vivo. The method, then:
Test mice were euthanised and brain, muscle (quadriceps), and blood samples were harvested 2 hours after the last dose on Day 20. Prior to analysis, crude total protein from brain and muscle tissue samples was prepared by sample lysis in MSD® assay buffer 1 (MSD®) with Complete™ Protease Inhibitor Cocktail added (Roche Diagnostics). Tissues were then homogenised using TissueLyser II (Qiagen) plus a 5 mm stainless steel bead. The lysate was clarified by centrifugation at 16,000×g for 20 minutes at 4° C. and the total protein concentration quantified with the Pierce™ BCA Protein Assay Kit (Thermo Scientific) according to the manufacturer's instructions. Whole blood was collected by cardiac puncture into EDTA collection tubes. An aliquot (100-200 μL) was added to 1.5 mL of eBioscience™ 1× Red Blood Cell Lysis Buffer (Thermo Fisher) and mixed well for 5 minutes before collecting the white blood cells (WBC) by centrifugation at 400×g. The supernatant was discarded, and the pellet of WBCs was frozen in liquid nitrogen and stored at −70° C. Brain and muscle sample lysates were analysed for hHTT and KRAS protein expression using the ECL protein assay (described previously); using the same method WBC samples were also analysed for hHTT expression but not KRAS.
Hu97/Hu18: Both sexes of 2-4 month old Hu97/181 mice were used. […]

Molecules are shown by their SMILES.

With `CC1(C)CC(Oc2ccc(-c3ccc(-c4cn[nH]c4)cc3O)nn2)CC(C)(C)N1` [HTT-C2], the “compound-induced splicing of minigene” value in data set [1] was “responded in a dose dependent manner”. The plasma exposure result in data set [2] is recorded as “superior exposure to HTT-C1”.
In the case of `CC1(C)CC(Oc2ccc(-c3ccc(-c4ccnc(O)c4)cc3O)nn2)CC(C)(C)N1` [HTT-C1], the “mouse HTT protein expression” value in data set [3] is recorded as “no effect”.
Consider `CCN1CCC(c2cc3c(F)cc(-c4cc(C)c5nc(C)cn5n4)cc3nn2)CC1` [HTT-D3], for which the “HTT protein in striatum and cortex” value in data set [4] (2, 6 or 12 mg/kg daily for 21 days) is reported as “uniform HTT protein reduction”. Besides, in data set [4] (Hu97/18 mice), the “HTT protein within the brain and peripheral tissues” value was “dose dependent and more equitable lowering of HTT protein”.
